Earlier results in patent EP1030653B1, “DINITROANILINE LIPOSOMAL FORMULATIONS AND PROCESSES FOR THEIR PREPARATION” (INSTITUTO NACIONAL DE ENGENHARIA E TECNOLOGIA …, priority 1998, dated 2000).

Test system: Leishmania sp

CCC1=C(C[C@H]2NCCc3cc(OC)c(OC)cc32)C[C@H]2c3cc(OC)c(OC)cc3CCN2C1 [dehydroemetine]
cure: 67%

CC(=O)N(O)CCCCCNC(=O)CCC(=O)N(O)CCCCCNC(=O)CCC(=O)N(O)CCCCCN [desferrioxiamine]
efficiency (literature (32)): 44%

CN(Cc1cnc2nc(N)nc(N)c2n1)c1ccc(C(=O)N[C@@H](CCC(=O)O)C(=O)O)cc1 [methotrexate]
reduction on the infection level (literature (10, 11)): 85%

N=C(N)c1ccc(OCCCCCOc2ccc(C(=N)N)cc2)cc1 [pentamidine]
efficacy (in words) (literature): less efficacy than antimonial derivatives

CCCN(CCC)c1c([N+](=O)[O-])cc(C(F)(F)F)cc1[N+](=O)[O-] [trifluralin]
activity against the visceral forms (topical route, literature (12)): no activity
